Results published in the CheMixHub ionic liquid set.

Assay: xn = mol fraction of the nth substance listed

CCCCCC[n+]1ccn(C)c1.[Cl-] + CN(C)C=O
101 kPa
Details	viscosity [mPa·s]
288.15 K, x2 = 0.2751	230
308.15 K, x2 = 0.6856	9.1

CCCCCC[n+]1ccn(C)c1.[Cl-] + OCCO
101 kPa
Details	viscosity [mPa·s]
293.15 K, x2 = 0.4977	172.9
293.15 K, x2 = 0.6002	83.9
303.15 K, x2 = 0	4206
313.15 K, x1 = 0.0188	10.05
313.15 K, x2 = 0.6987	21.31
313.15 K, x2 = 0.8897	11.47
313.15 K, x2 = 0.9642	10.19
313.15 K, x2 = 0.9761	10.09
323.15 K, x1 = 0.0061	7.09
323.15 K, x2 = 0	783
323.15 K, x2 = 0.6002	24.77
323.15 K, x2 = 0.6987	15.34
323.15 K, x2 = 0.8998	8.19
323.15 K, x2 = 0.9642	7.38
333.15 K, x1 = 0.0061	5.28
333.15 K, x2 = 0.1526	191.8
333.15 K, x2 = 0.4977	29.57
333.15 K, x2 = 0.6987	11.45
333.15 K, x2 = 0.9532	5.61

CCCC[n+]1ccccc1.F[B-](F)(F)F + O
Details	electrical conductivity [S/m]	viscosity [mPa·s]
283.15 K, 101.3 kPa, x2 = 0.263	–	84
283.15 K, 101.3 kPa, x2 = 0.637	–	15.85
283.15 K, 101.3 kPa, x2 = 0.724	–	10.78
288.15 K, 101.3 kPa, x2 = 0.11	–	153.8
288.15 K, 101.3 kPa, x2 = 0.391	–	35.82
288.15 K, 101.3 kPa, x2 = 0.637	–	13.01
298.15 K, 101 kPa, x1 = 0.000191	0.096	–
298.15 K, 101 kPa, x1 = 0.0004053	0.191	–
298.15 K, 101 kPa, x1 = 0.0005259	0.247	–
298.15 K, 101 kPa, x1 = 0.0007203	0.33	–
298.15 K, 101 kPa, x1 = 0.0008354	0.365	–
298.15 K, 101 kPa, x1 = 0.0009829	0.44	–
298.15 K, 101 kPa, x1 = 0.001125	0.486	–
298.15 K, 101 kPa, x1 = 0.001254	0.542	–
298.15 K, 101 kPa, x1 = 0.001434	0.6	–
298.15 K, 101 kPa, x1 = 0.001585	0.659	–
298.15 K, 101 kPa, x1 = 0.001811	0.743	–
298.15 K, 101 kPa, x1 = 0.001984	0.819	–
298.15 K, 101 kPa, x1 = 0.002073	0.846	–
298.15 K, 101 kPa, x1 = 0.002208	0.889	–
298.15 K, 101 kPa, x1 = 0.002434	0.962	–
298.15 K, 101 kPa, x1 = 0.002597	1.02	–
298.15 K, 101 kPa, x1 = 0.002828	1.09	–
298.15 K, 101 kPa, x1 = 0.002875	1.11	–
298.15 K, 101 kPa, x1 = 0.003074	1.17	–
298.15 K, 101 kPa, x1 = 0.003174	1.2	–
298.15 K, 101.3 kPa, x2 = 0.724	–	6.55
303.15 K, 101.3 kPa, x2 = 0.11	–	67.1
303.15 K, 101.3 kPa, x2 = 0.549	–	11.1
313.15 K, 101.3 kPa, x2 = 0.549	–	8.32
313.15 K, 101.3 kPa, x2 = 0.724	–	4.34
328.15 K, 101.3 kPa, x2 = 0.11	–	24.88
328.15 K, 101.3 kPa, x2 = 0.724	–	3.11
333.15 K, 101.3 kPa, x2 = 0.414	–	7.99
338.15 K, 101.3 kPa, x2 = 0.637	–	3.52
343.15 K, 101.3 kPa, x2 = 0.11	–	15.89
343.15 K, 101.3 kPa, x2 = 0.263	–	9.35
343.15 K, 101.3 kPa, x2 = 0.391	–	6.91
348.15 K, 101.3 kPa, x2 = 0	–	18.45

CC[n+]1ccccc1.N#C[N-]C#N + CC(C)O
100 kPa
Details	viscosity [mPa·s]
288.15 K, x2 = 0.2997	15.1
293.15 K, x2 = 0.1055	18
298.15 K, x2 = 0.4023	9.28
303.15 K, x2 = 0.5998	5.49
308.15 K, x2 = 0.7006	3.8
308.15 K, x2 = 0.8997	2.27
313.15 K, x2 = 0	12.5
313.15 K, x2 = 0.5998	4.42
313.15 K, x2 = 0.7006	3.43
313.15 K, x2 = 0.8007	2.66
318.15 K, x2 = 0.5998	3.99
318.15 K, x2 = 0.7006	3.11
